Assay results reported in patent US9272047B2, “Use of biological surfactant as anti-inflammatory agent and tissue preservative solution” (Shaperon Inc., priority 2007, dated 2016).
Entries after “also recorded” stand apart in the source; their conditions may differ.

Key:
[1] = tested on: LPS-administered C57BL/6 mice; assay: Protection in LPS mouse model of sepsis (survival); assay type: in vivo, C57BL/6 mouse; conditions: for survival rate of the mice: 20 mg/kg LPS into abdomen
Description: In order to assay the neutralizing capacity of sodium glycocholate to LPS, three C57BL/6 mice of 6 weeks age were used per each group. 20 mg/kg and 10 mg/kg of LPS were administered into abdomen of the mouse in order to measure LD50 of LPS. It was observed that 20 mg/kg of LPS is the best optimal concentration for the test of protection test (FIG. 16).
The […] neutralizing capacity of sodium glycocholate to LPS was assayed. The survival rate was measured after 20 mg/kg of LPS was administered into the abdomen of mice and then 12.5 mg/kg of sodium glycocholate, and 20 mg/kg of LPS and 50 mg/kg of sodium glycocholate respectively was administered twice into the abdomen of mice, respectively.

macrophages [2] = assay: Inhibition of LPS-induced nitric oxide generation, macrophages (Griess); assay type: cell-based, mouse; conditions: macrophages stimulated by LPS, 18 hours
Description: Then, the resulting dendritic cell mixtures were plated, by […] each, in a 96-well plate. Griss reagents were added to each well, and the 96-well plate was covered with foils and kept reacting for 15 min at room temperature. Absorbance at 540 nm was measured using an ELISA reader. Macrophages separated from abdomen were also treated with sodium glycocholate, sodium taurochenodeoxycholate and sodium taurodeoxycholate, respectively, and then stimulated with LPS for 18 hours. Thereafter, the same experiments as the dentritic cells were performed to the macrophages.

dendritic cells = assay: Cytotoxicity to dendritic cells (7AAD, FACS); assay type: cell-based, mouse
Description: (§1) The cytotoxicity of sodium glycocholate to the CHO cells, dendritic cells, T cells which were used in the above Examples was assayed. FACS analysis was performed after staining with 7AAD. First, sodium glycocholate was kept in vitro for 1 hour at 37° C., and then mixed with cells. CHO cells or dendritic cells were incubated for 14 hours at 37° C., and T cells which were mixed with 14 hour-incubated dendritic cells, were incubated for 4 days. Then, each cell was stained with 7AAD and cell analysis were carried out by using a flow cytometer.

[3] = tested on: dendritic cell-mediated T cells; assay: Cytotoxicity to dendritic cell-mediated T cells (7AAD, FACS); assay type: cell-based, mouse
Description: as §1

abdominal cells = assay: Toxicity to abdominal cells separated from mice after abdominal administration (7AAD); assay type: in vivo, C57BL/6 mouse; conditions: 5 mg (250 mg/kg) into abdomen, cells separated after 1 hour
Description: In order to assay the toxicity of sodium glycocholate to a mouse, experiments were performed to five C57BL/6 male mice of 7-9 weeks age per each group. Sodium glycocholate dissolved in PBS was kept in vitro for 1 hour at 37° C., and then the sodium glycocholate solution was administered into the abdomen of the mice followed by the cell analysis. After 1 hour from the administration, the abdominal cells were separated and stained with 7AAD, and then the abdominal cells were analyzed. Cells which were freezed and thawed at least five times were used for a positive control group in 7ADD staining. Experimental results were statistically analyzed by t-test, and p<0.05 compared with the experimental group which was not treated with sodium glycocholate.

[4] = tested on: interaction between fluorescein-labeled E. coli LPS and a CHO cell; assay: Inhibition of the interaction between fluorescein (BODIPY)-labeled E. coli LPS and CHO cells, flow cytometry; assay type: cell-based, Chinese hamster; conditions: CHO cells, 7-AAD(−) living cells
Description: Boron dipyrromethene difluoride (BODIPY), a fluorescein, labeled E. coli LPS and CHO cells were used. BODIPY-labeled LPS was reacted with sodium glycocholate in a glass tube at 37° C. for 14 hours. 2×10^5 CHO cells mixed with the reacting solution were plated per well in a 96-well plate, and then incubated at 37° C. for 14 hours. The incubated solution was stained with 7-amino-actinomycin D (7-AAD) and then analyzed by a flow cytometer. The analysis was performed at least twice per each treatment group and the obtained data were statistically processed by t-test. The result was P<0.05 in comparison with the experimental group in which CHO cells were treated with only BODIPY-LPS.
7-AAD(−) cells were selected in order to analyze living cells. […] Therefore, it could be realized that Inflammatory inhibition efficacy of sodium glycocholate shown in the LPS-stimulated inflammatory response was due to the blocking of the interaction between LPS and cells by the action of sodium glycocholate.

[5] = tested on: ischemia-reperfusion renal injury; assay: Ischemia-reperfusion renal injury model, organ preservative solution additive; assay type: in vivo, Sprague-Dawley rat; conditions: 0.5 mg/ml in HTK solution
Description: The effect of sodium glycocholate to inflammatory response and renal function in an ischemia-reperfusion renal injury model, was evaluated. Five Sprague-Dawley (SD) male rats of 6 weeks age were used per each group, and foods and waters were not supplied to all the rats from 1 day before the experiment. The rats were anesthetized by the administration of 1 mg avertin (tribromoethanol/amyl hydrate)/100 g rat to the abdomen of the rats, and then laparotomized. All the blood flow to a left kidney was blocked by clamping the aorta and vena cava using vascular clamps. Before injecting the organ preservative solution, a vein of the left kidney was penetrated to minimize physical damage of the kidney due to the preservative solution pressure. Then, after histidine-tyroptophan-ketoglutarate (HTK) or a mixture solution of HTK and 0.5 mg/ml of sodium glycocholate was injected, at 4 ml/rat, into the vein, the damaged part of the vein was sutured by using 10-0 suture. After 30 min maintenance of the above state, the vascular clamps were removed and the laparotomized part was sutured. […] The concentration of IL-6 in the serum was measured by a enzyme-linked immunosorbent assay, and the concentrations of blood urea nitrogen (BUN), creatinine (Cre) and aspartate aminotransferase (AST) in the plasma were measured by an automated analyzer.

macrophages [6] = assay: In vitro proinflammatory cytokine generation by E. coli LPS, macrophages (ELISA); assay type: cell-based, C57BL/6 mouse; conditions: LPS stimulation
Description: In order to assay the effect of sodium glycocholate on the generation of proinflammatory cytokines induced by E. coli LPS, dendritic cells were prepared in the same way as Example 3, and macrophages were separated from the abdomen of C57BL/6 mouse. Thereafter, sodium glycocholate and LPS were reacted in vitro for 1 hour at 37° C., and then mixed with the cells. Each cell was stimulated for 14 hours at 37° C., and then supernatant fluid was separated.
The concentrations of TNF-α and interleukin-12p40 in the separated supernatant fluid was measured by an enzyme-linked immunoabsorbent assay (ELISA).
Each group was treated and assayed at least twice, and the results were statistically analyzed through t-test. The results were p<0.05 compared with the experimental groups treated by only LPS.

CHO cells = assay: Cytotoxicity to CHO cells (7AAD, FACS); assay type: cell-based, Chinese hamster
Description: as §1
The same procedures as for FIG. 25A were carried out in FIGS. 26A-26C-Figs. 31A-31B and cytotoxicity experiments were performed on three groups of bile acid derivatives which were classified based on their solubility in different solvents.

C[C@H](CCC(=O)NCC(=O)[O-])[C@H]1CC[C@H]2[C@@H]3[C@H](O)C[C@@H]4C[C@H](O)CC[C@]4(C)[C@H]3C[C@H](O)[C@]12C.[Na+] [sodium glycocholate]
survival rate of the mice ([1]; 12.5 mg/kg administered twice (1 hour and 6 hours after LPS)): 40% | survival rate of the mice ([1]; 50 mg/kg administered twice (1 hour and 6 hours after LPS)): 60% | mortality of mice ([1]; dose of 12.5 mg/kg mouse): significantly reduced | generation of NO (macrophages [2]): inhibited | cytotoxicity (dendritic cells; 1 mg/ml): no significant cytotoxicity; also recorded: dose not have cytotoxicity | 7AAD(+) increase compared with the negative control group (dendritic cells; 14 hours): 2-4% | cytotoxicity ([3]; 1 mg/ml): no significant cytotoxicity; also recorded: dose not have cytotoxicity | 7AAD(+) increase compared with the negative control group ([3]; 4 days): 2-4% | cytotoxicity for abdominal cells (survival rate of the abdominal cells versus PBS control) (abdominal cells): no significant difference; also recorded: dose not have cytotoxicity | interaction between BODIPY-LPS and the cell [4]: inhibited according to the increase of the concentration | ischemia-reperfusion renal injury [5]: inhibited | inhibition of generation of TNF-α (macrophages [6]; 0.5 mg/ml): 42.2±0.9% | inhibition of generation of interleukine-12p40 (macrophages [6]; 0.5 mg/ml): 9.8±11.0% | inhibition of generation of TNF-α (macrophages [6]; 1 mg/ml): 87.8±0.2% | inhibition of generation of interleukine-12p40 (macrophages [6]; 1 mg/ml): 54.3±4.1% | cytotoxicity (CHO cells; 1 mg/ml): no significant cytotoxicity; also recorded: dose not have cytotoxicity | 7AAD(+) increase compared with the negative control group (CHO cells; 14 hours): 2-4%
